The source of these data is patent US20240246951A1, “COMPOUND HAVING BIOLOGICAL ACTIVITY SUCH AS ANTIVIRAL ACTIVITY” (NATIONAL CENTER FOR GLOBAL HEALTH AND MEDICINE, priority 2021, published 2024).

For series [1], the system named is SARS-CoV-2WK-521. The experiment in a line: microbe, parasite or virus in culture. Type of series: cell-based. The note with it: for times more excellent EC50 value as compared with PF-7321332: ratio of EC50 values; for times more excellent EC99 value as compared with PF-7321332: ratio of EC99 values.
The target of series [2] is Mpro/3CL protease of SARS-CoV-2 (Severe acute respiratory syndrome coronavirus 2 (2019-nCoV) (SARS-CoV-2), UniProt P0DTD1). The series is described as follows: Mpro/3CL protease enzyme inhibitory activity, FRET assay kit. Type of series: biochemical. The conditions noted are these: fluorogenic substrate, 25° C.
Series [3] in a line: Cytotoxicity test, MTT assay. The class given is cell-based. The note with it: African green monkey, Vero E6 cells. The method, then: (§1) The cytotoxicity test of the test compounds was conducted using Vero E6 cells. Specifically, Vero E6 cells were inoculated in a 96 well plate to be 1×10^4 cells/well, and cultured under standard culture conditions of 3 days, 37° C., and 5% CO2 together with media supplemented with each test compound of each concentration after serial dilution. Thereafter, the viable cell count of each well was quantified by MTT assay to calculate 50% cytotoxicity concentration (CC50).

Series [4] in a line: in vivo. The note with it: mouse, 2 mg/kg; for half-life: iv; for bioavailability: po, bioavailability (BA).
The subject of series [5] is Vero E6 cells. The series is described as follows: Cytotoxicity test, MTT assay. Type of series: cell-based. The note with it: 3 days. How it is done:
as §1

Where [6] appears, read: Severe acute respiratory syndrome coronavirus 2, Vero C1008, 72 h, Vero E6 cells, MOI 0.05, 3 days, read-out: EC50.
The mark [7] stands for this setting: Vero E6 cells, MOI 0.05, 3 days.
[8] abbreviates: Severe acute respiratory syndrome coronavirus 2, Vero C1008, 72 h, read-out: EC50.

Like-named read-outs stand apart in the source and are kept apart here. Bounds are passed on as bounds.

Take `CC1(C)[C@@H]2[C@@H](C(=O)N[C@@H](C[C@@H]3CCNC3=O)C(=O)c3nc4c(F)cccc4s3)N(C(=O)c3cc4c(F)ccc(F)c4[nH]3)C[C@@H]21` [Compound 243, (1R,2S,5S)-3-(4,7-difluoro-1H-indole-2-carbonyl)-N-((S)-1-(4-fluorobenzo[d]thiazol-2-yl)-1-oxo-3-((S)-2-oxopyrrolidin-3-yl)propan-2-yl)-6,6-dimethyl-3-azabicyclo[3.1.0]hexane-2-carboxamide]: the concentration for a half-maximal effect (EC50) in series [1] (setting [6]) came out at 750 nM. In series [1] (setting [7]), the EC99 was 9.4 µM. For the same compound, in series [2], the IC50 was determined as 800 nM. In series [3], this compound returned a half-maximal cytotoxic concentration (CC50) at 3 days of over 100000 nM.

In the case of `COc1ccc(F)c2[nH]c(C(=O)N3C[C@H]4[C@@H]([C@H]3C(=O)N[C@@H](C[C@@H]3CCNC3=O)C(=O)c3nc5c(F)cccc5s3)C4(C)C)cc12` [Compound 244, (1R,2S,5S)-3-(7-fluoro-4-methoxy-1H-indole-2-carbonyl)-N-((S)-1-(4-fluorobenzo[d]thiazol-2-yl)-1-oxo-3-((S)-2-oxopyrrolidin-3-yl)propan-2-yl)-6,6-dimethyl-3-azabicyclo[3.1.0]hexane-2-carboxamide], the EC50 in series [1] (setting [6]) came to 600 nM. Besides, the EC99 in series [1] (setting [7]) is 0.99 µM. Further, in series [2], half-maximal inhibition (IC50) was put at 600 nM. The compound also had a CC50 at 3 days in series [3] of over 100000 nM.

Regarding `CC(C)(C)[C@H](NC(=O)C(F)(F)F)C(=O)N1C[C@H]2[C@@H]([C@H]1C(=O)N[C@@H](C[C@@H]1CCNC1=O)C(=O)c1nc3c(F)cccc3s1)C2(C)C` [Compound 245, (1R,2S,5S)-3-((S)-3,3-dimethyl-2-(2,2,2-trifluoroacetamido)butanoyl)-N-((S)-1-(4-fluorobenzo[d]thiazol-2-yl)-1-oxo-3-((S)-2-oxopyrrolidin-3-yl)propan-2-yl)-6,6-dimethyl-3-azabicyclo[3.1.0]hexane-2-carboxamide], in series [4], the half-life was at least 45 min and the bioavailability was at least 31%. Besides, the bioavailability in series [4] (same experiment conducted again, mice, 2 mg/kg P.O. vs I.V., calculated from AUC of FIG. 2) is 47.7%. Also, in series [1], the EC75 amounted to 290 nM, the EC99 was 0.95 µM, the “times more excellent EC50 value as compared with PF-7321332” value is given as at least 20 times and the “times more excellent EC99 value as compared with PF-7321332” value is given as “about 10 times”. Further, the EC50 in series [1] (setting [8]) was 80 nM. The “suppression of proliferation of SARS-CoV-2” value in series [1] (concentration of 1 μM) was “almost completely suppressed”. Further, in series [3], the 50% cytotoxic concentration (CC50) at 3 days was over 100000 nM.

As to `CC(C)(C)[C@H](NC(=O)C(F)(F)F)C(=O)N1C[C@H]2[C@@H](C1C(=S)N[C@@H](C[C@@H]1CCNC1=O)C(=O)c1nc3c(F)cccc3s1)C2(C)C` (stereo partly drawn) [Compound 245s, 2,2,2-trifluoro-N-((S)-1-((1R,2S,5S)-2-(((S)-1-(4-fluorobenzo[d]thiazol-2-yl)-1-oxo-3-((S)-2-oxopyrrolidin-3-yl)propan-2-yl)carbamothioyl)-6,6-dimethyl-3-azabicyclo[3.1 0.0]hexan-3-yl)-3,3-dimethyl-1-oxobutan-2-yl)acetamide], in series [1] (setting [7]), the EC75 worked out at 550 nM and the EC99 amounted to 0.98 µM. Also, the “times more excellent EC99 value as compared with PF-7321332” value in series [1] is on record as “about 10 times”.

On to `CC(C)(C)[C@H](NC(=O)C(F)(F)F)C(=O)N1C[C@H]2[C@@H]([C@H]1C(=S)N[C@@H](C[C@@H]1CCNC1=O)C(=O)c1nc3c(F)cccc3s1)C2(C)C` [Compound 245s, 2,2,2-trifluoro-N-((S)-1-((1R,2S,5S)-2-(((S)-1-(4-fluorobenzo[d]thiazol-2-yl)-1-oxo-3-((S)-2-oxopyrrolidin-3-yl)propan-2-yl)carbamothioyl)-6,6-dimethyl-3-azabicyclo[3.1 0.0]hexan-3-yl)-3,3-dimethyl-1-oxobutan-2-yl)acetamide], for which the EC50 in series [1] (setting [6]) is 310 nM. In addition, in series [1], the “times more excellent EC50 value as compared with PF-7321332” value is on record as at least 6 times. Also, the IC50 in series [2] was 300 nM. In series [3], this compound gave a CC50 at 3 days of over 100000 nM.

On to `CC(C)(C)[C@H](NC(=O)C(F)(F)F)C(=O)N1C[C@H]2[C@@H]([C@H]1C(=O)N[C@@H](C[C@@H]1CCNC1=O)C(=O)c1nc3c(F)ccc(F)c3s1)C2(C)C` [Compound 247], for which the EC99 in series [1] was under 1.0 µM. The EC50 in series [1] (read-out: EC50) was under 200 nM. Also, the 50% cytotoxic concentration (CC50) in series [5] was over 100000 nM.

Consider `CC(C)(C)[C@H](NC(=O)C(F)(F)F)C(=O)N1C[C@H]2[C@@H]([C@H]1C(=S)N[C@@H](C[C@@H]1CCNC1=O)C(=O)c1nc3c(F)ccc(F)c3s1)C2(C)C` [Compound 247s], for which the EC99 in series [1] is under 1.0 µM. For the same compound, in series [1] (read-out: EC50), the concentration for a half-maximal effect (EC50) was under 300 nM. This compound also registered a CC50 in series [5] of over 100000 nM.

`CC1(C)[C@@H]2[C@@H](C(=O)N[C@@H](C[C@@H]3CCNC3=O)C(=O)c3nc4c(F)cccc4s3)N(C(=O)[C@H](CC(F)(F)F)NC(=O)C(F)(F)F)C[C@@H]21` [Compound 248] displayed an EC99 in series [1] of under 1.0 µM. Besides, the half-maximal effective concentration (EC50) in series [1] (read-out: EC50) was under 200 nM. Also, the CC50 in series [5] was over 100000 nM.

Regarding `CC1(C)[C@@H]2[C@@H](C(=S)N[C@@H](C[C@@H]3CCNC3=O)C(=O)c3nc4c(F)cccc4s3)N(C(=O)[C@H](CC(F)(F)F)NC(=O)C(F)(F)F)C[C@@H]21` [Compound 248s], the EC99 in series [1] is under 1.0 µM. For the same compound, the EC50 in series [1] (read-out: EC50) is under 300 nM. Further, in series [5], the half-maximal cytotoxic concentration (CC50) is over 100000 nM.

Take `CC1(C)[C@@H]2[C@@H](C(=O)N[C@@H](C[C@@H]3CCNC3=O)C(=O)c3nc4c(F)cccc4s3)N(C(=O)[C@H](CCC(F)(F)F)NC(=O)C(F)(F)F)C[C@@H]21` [Compound 249]: the EC99 in series [1] was under 1.0 µM. For the same compound, the EC50 in series [1] (read-out: EC50) was under 200 nM. This compound came in with a CC50 in series [5] of over 100000 nM.

Compound `CC1(C)[C@@H]2[C@@H](C(=S)N[C@@H](C[C@@H]3CCNC3=O)C(=O)c3nc4c(F)cccc4s3)N(C(=O)[C@H](CCC(F)(F)F)NC(=O)C(F)(F)F)C[C@@H]21` [Compound 249s] registered an EC99 in series [1] of under 1.0 µM. The EC50 in series [1] (read-out: EC50) was under 300 nM. This compound displayed a CC50 in series [5] of over 100000 nM.

Compound `CC(C)(F)[C@H](NC(=O)C(F)(F)F)C(=O)N1C[C@H]2[C@@H]([C@H]1C(=O)N[C@@H](C[C@@H]1CCNC1=O)C(=O)c1nc3c(F)cccc3s1)C2(C)C` [Compound 250] yielded an EC99 in series [1] of under 1.0 µM. Besides, the concentration giving a half-maximal response (EC50) in series [1] (read-out: EC50) was under 200 nM. In series [5], this compound displayed a CC50 of over 100000 nM.

As to `CC(C)(F)[C@H](NC(=O)C(F)(F)F)C(=O)N1C[C@H]2[C@@H]([C@H]1C(=S)N[C@@H](C[C@@H]1CCNC1=O)C(=O)c1nc3c(F)cccc3s1)C2(C)C` [Compound 250s], in series [1], the EC99 is under 1.0 µM. Further, in series [1] (read-out: EC50), the EC50 is under 300 nM. In series [5], this compound registered a CC50 of over 100000 nM.

Take `CC(C)(F)[C@H](NC(=O)C(F)(F)F)C(=O)N1C[C@H]2[C@@H]([C@H]1C(=O)N[C@@H](C[C@@H]1CCNC1=O)C(=O)c1nc3c(F)ccc(F)c3s1)C2(C)C` [Compound 251]: the EC99 in series [1] was under 1.0 µM. Besides, the concentration giving a half-maximal response (EC50) in series [1] (read-out: EC50) was under 200 nM. For the same compound, in series [5], the CC50 was over 100000 nM.

On to `CC(C)(F)[C@H](NC(=O)C(F)(F)F)C(=O)N1C[C@H]2[C@@H]([C@H]1C(=S)N[C@@H](C[C@@H]1CCNC1=O)C(=O)c1nc3c(F)ccc(F)c3s1)C2(C)C` [Compound 251s], for which, in series [1], the EC99 is under 1.0 µM. Moreover, in series [1] (read-out: EC50), the EC50 is under 300 nM. The compound further displayed a CC50 in series [5] of over 100000 nM.

`CC(C)(C)[C@H](NC(=O)C(F)(F)F)C(=O)N1C[C@H]2[C@@H]([C@H]1C(=O)N[C@@H](C[C@@H]1CCNC1=O)C(=O)c1nc3cc(F)ccc3s1)C2(C)C` [Compound 272, (1R,2S,5S)-3-((S)-3,3-dimethyl-2-(2,2,2-trifluoroacetamido)butanoyl)-N-((S)-1-(5-fluorobenzo[d]thiazol-2-yl)-1-oxo-3-((S)-2-oxopyrrolidin-3-yl)propan-2-yl)-6,6-dimethyl-3-azabicyclo[3.1.0]hexane-2-carboxamide] displayed a bioavailability in series [4] of 99.3%. Further, the EC50 in series [1] (setting [8]) worked out at 8 nM. Further, the CC50 at 3 days in series [3] was over 80000 nM.

Regarding `CC(C)(C)[C@H](NC(=O)C(F)(F)F)C(=O)N1C[C@H]2[C@@H]([C@H]1C(=O)N[C@@H](C[C@@H]1CCNC1=O)C(=O)c1nc3ccc(F)cc3s1)C2(C)C` [Compound 273, (1R,2S,5S)-3-((S)-3,3-dimethyl-2-(2,2,2-trifluoroacetamido)butanoyl)-N-((S)-1-(6-fluorobenzo[d]thiazol-2-yl)-1-oxo-3-((S)-2-oxopyrrolidin-3-yl)propan-2-yl)-6,6-dimethyl-3-azabicyclo[3.1.0]hexane-2-carboxamide], the EC50 in series [1] (setting [8]) came to 52 nM. For the same compound, the CC50 at 3 days in series [3] was over 80000 nM.

In series [4], `COc1cccc2[nH]c(C(=O)N[C@@H](CC(C)C)C(=O)N[C@@H](C[C@@H]3CCNC3=O)C(=O)c3nc4ccccc4s3)cc12` [Compound 2420, reference compound] returned a half-life of about 10 min. In series [1] (Severe acute respiratory syndrome coronavirus 2, Vero C1008, 72 h), this compound displayed a half-maximal effective concentration (EC50) of 2700 to 3200 nM.

Take `CC(C)(C)[C@H](NC(=O)C(F)(F)F)C(=O)N1C[C@H]2[C@@H]([C@H]1C(=O)N[C@H](C#N)C[C@@H]1CCNC1=O)C2(C)C` [PF-7321332, reference compound]: the EC50 in series [1] (setting [6]) was determined as 1900 nM. In addition, in series [1] (setting [7]), the EC75 was determined as 4390 nM and the EC99 stood at 9.68 µM. Further, the CC50 at 3 days in series [3] is over 100000 nM.
